Consider one sequence from patent US10240133B2, “ERK-derived peptides and uses thereof” (Yeda Research and Development Co. Ltd., priority 2013, dated 2019).

“Also recorded” adds a separate entry of the source. Where only a bound is given, the exact number is not on record here.

For data set [1] the following is noted: mouse, in vivo.
Protocol: Female SCID mice (Harlan), 5-6 weeks of age, were inoculated s.c. into the flank region with 10^7 A2352 cells in 150 μl mixture of PBS with matrigel (2:1). Tumors were allowed to develop to the size of 5-6.5 mm in diameter (50˜110 mm^3 volume) and then the animals were randomly allocated to different treatment groups. The peptides (100 mM stock in DMSO), were diluted to the necessary concentration in PBS and boiled for 5 minutes. Then, DMSO, Scr or EPE peptides were administered by i.v. injection into the tail vein (150 μl/mouse, 3 times a week). Tumor dimensions were measured with a digital sliding caliper. Tumor volume was calculated using the formula: V=D1×D2×D3×π/6, where D1, D2, D3—represent the three mutually orthogonal growth diameters. To assess any signs of systemic toxicity, body weight was monitored, and recorded at the end of the experiment.
Tumor xenografts, lungs, livers, kidneys and hearts of animals from different treatment groups were removed and subjected for histological analysis by staining of 5 μm paraffin embedded tissue slides with H&E, and examination by light microscope. […] Briefly, paraffin embedded blocks of tumors after different treatments were cut at 4 μm thickness and stained with ERK Abs, followed by second antibodies conjugated to peroxidase and DAB staining. Representative fields of each specimen were photographed at ×20 and ×40 magnifications.
The subject of data set [2] is other cell lines examined. As to the kind of experiment: Apoptosis (TUNEL, PARP-1 cleavage). The class given is cell-based. On the procedure:
(§1) FIGS. 5A-5D illustrate that the EPE peptide leads to apoptosis of B-Raf mutant cancer cells. (A) The EPE peptide affects the morphology of treated cells. The indicated cells were treated with either the EPE or Scr peptides, DMSO, or taxol for 72 h, and photographed by a light microscope. (B) The EPE peptide induces apoptosis in melanoma cells detected by TUNEL. The indicated cell lines were treated as in A for 24 h. Apoptosis was detected by TUNEL staining. Images were obtained by florescence microscope. (C) Quantification of B. The bar-graph represents percent of apoptotic cells calculated in 10 different fields. (D) The EPE peptide induces apoptosis of melanoma cells detected by PARP cleavage. The indicated cell lines were treated as in (A) for 24 h. Cell extracts were subjected to Western blotting with αPARP Ab.
(§2) Cells were seeded on glass cover slips in a 12-wells plate at 25% confluence with medium containing 1% of FCS. Peptides (EPE or Scr), DMSO, or U0126 in a final concentration of 10 μM, were added after 4 h (considered as time “0”). TUNEL staining was performed at 24 h after the treatment according to manufacturer instruction (Roche Applied Science, Nutley, N.J., USA). Briefly, the medium was removed and cells were fixed with 3% of paraformaldehyde (1.5 h, 23° C.). Cells were rinsed twice with PBS and permeabilized with 0.1% Triton X-100 and 0.1% sodium citrate for 2 min on ice. Cells were rinsed twice with PBS and 28 μl of TUNEL reaction mixture (25 μl of TUNEL label, 2.5 μl of TUNEL enzyme and 0.1 mg/ml of DAPI) was added directly on top of the slide, cells were incubated for 16 h in humid box at 37° C. Cover slips were rinsed three times with PBS and mounted on microscope slides. The slides were dried and then subjected to image acquisition by a florescence microscope. For morphology assay, the cells were seeded at approximately 25% confluence in 6 cm plates with medium containing 1% FCS. Peptides (EPE and Scr) or DMSO or U0126 in a final concentration of 10 μM, were added after 4 h (considered to be time 0), 24 h and 48 h. Images were obtained by a light microscope (Olympus BX51) after 72 h.

Another data set concerns B-Raf mutated melanomas. Nature of the data set: Apoptosis (TUNEL, PARP-1 cleavage). The format is cell-based. The note with it: 24 h. On the procedure: as §1, §2
Data set [3] has as its system low passage A2352 B-Raf melanoma xenograft. Nature of the data set: Tumor xenograft growth. The class given is in vivo, SCID mice. The note with it: tail vein administration. As for the experimental part:
(§3) FIGS. 6A-6B illustrate that the EPE peptide prevents the growth of human tumor xenografts. CD-1 nude mice were inoculated with MDA-MB-231, LOXIMVI and HCT-116 cells, and SKID mice were inoculated with A2352 cells. Upon tumors establishment, the mice were treated intravenously with the DMSO as well as EPE or Scr peptides in the indicated doses, 3 times a week. The results are averages of 5 mice in each experimental group. The X, Y, Z dimensions of the tumors were measured with a caliper, and the volume was calculated accordingly. The significance of all experiments was at least P<0.001. (B) The EPE peptide prevents tumor recurrence on melanoma xenograft. SCID mice were inoculated with A2352 cells. Upon establishment of tumors mice were treated intravenously with 15 mg/kg EPE peptide (n=7) or intraperitonealy with 15 mg/kg PLX4032 (n=5), at the indicated dose 3 times a week. Tumor size was recorded at the same time using a caliper. Following 3 weeks of treatment, mice were kept for further evaluation monitoring for any tumor recurrence of the effective treated melanoma xenografts. Experiment was concluded 110 days post inoculation (11 weeks after the last treatment) and the overall state of the animals was evaluated. sac=sacrificed, recur=recurrence, met=metastasis.
(§4) Tumor dimensions were measured with a digital sliding caliper.

Another data set relates to JNK2 and p38. Nature of the data set: Nuclear translocation of other MAPKs (fluorescence microscopy). The format is cell-based. The note with it: HeLa cells; TPA or anisomycin. As for the experimental part:
HeLa cells were serum-starved, pretreated with the EPE or Scr peptides, and then stimulated with either TPA (250 nM, 15 min), anisomycin (Anis, 10 μg/ml, 15 min) for the indicated times, or left untreated as control (NT). The cells were stained with αp38 or αgJNK Abs and DAPI. Scale bar—15 μm. (B) Extracts from cells treated as in A were analyzed by Western blotting with the indicated Abs.
Cells were fixed in 3% paraformaldehyde in PBS (20 min, 23° C.), and then permeabilized and blocked with 0.2% Triton X-100 in PBS-BSA (2%) for 20 min at 23° C. The fixed cells were sequentially incubated with appropriated Abs, (diluted in 10 μg/ml BSA/PBS) for 1 h, followed by either Cy-2 or rhodamine-conjugated secondary Abs and DAPI (diluted in BSA/PBS, 1:200) for 1 h. To follow the subcellular localization of the biotin-conjugated peptides, cells were incubated with Avidin-FITC (diluted in BSA/PBS 1:400) and DAPI. Slides were analyzed and photographed by a fluorescent microscope (Nikon, Japan, 600× magnification).

The test system of another data set is MDA-MB-231 xenograft. Nature of the data set: Tumor xenograft growth. The format is in vivo, CD-1 nude mice. The conditions noted are these: i.v. tail vein, 3 times a week. As for the experimental part:
as §3, §4

A further data set relates to LOXIMVI xenograft. As to the kind of experiment: Tumor xenograft growth. The class given is in vivo, CD-1 nude mice. The note with it: i.v. tail vein, 3 times a week. On the procedure:
as §3, §4

The subject of another data set is HCT-116 xenograft. As to the kind of experiment: Tumor xenograft growth. The class given is in vivo, CD-1 nude mice. The note with it: i.v. tail vein, 3 times a week. As for the experimental part:
as §3, §4

Take “GQLNHILGILGEPEQED (Synthetic peptide (EPE)) [EPE peptide, NTS-derived peptide with phosphomimetic EPE motif]”: in data set [1], the “size or structure of the kidneys, livers and hearts” value is on record as “did not affect”; the “structure of the lungs” value is listed as “not affected”. Also, in data set [2], the “apoptosis / cell death” value is given as “No apoptosis was detected”. Besides, in the data set on B-Raf mutated melanomas, the “apoptosis (TUNEL, PARP-1)” value is “enhanced apoptosis” and the “apoptosis relative to Taxol” value was “as strong as the apoptosis induced by Taxol”. The “time to complete eradication of melanoma xenograft” value in data set [3] is reported as no more than 2 weeks. In addition, the “translocation of other MAPKs (JNK2, p38)” value with JNK2 and p38 was “affected neither the translocation of other MAPKs; also recorded: does not affect the nuclear translocation of JNK2 and p38”. In the data set with MDA-MB-231 xenograft, the “growth of tumor xenograft” value is reported as “dose dependent inhibition of the growth”. Further, the “growth of tumor xenograft” value in the data set on LOXIMVI xenograft is on record as “dose dependent inhibition of the growth”. Moreover, in the data set with HCT-116 xenograft, the “growth of tumor xenograft” value is given as “to some extent”.
